For orientation: inhibition means the drop in the measured response relative to a control, in per cent. What is called IC50 is the concentration that gives 50% inhibition.

Results on two compounds are retold here after publication PMC9841523 (Journal of Medicinal Chemistry, 2022).

The test system of one data set is PKCa, PKCg. In words: KiNativ kinase panel. It counts as cell-based, human. The note with it: 1 μM, MCF-7 Cells, Other.
The target in another data set is T1, PIP5K3 (Homo sapiens, UniProt Q9Y2I7).
T1 construct: purchased ActivX Biosciences (KiNativ)
In words: KiNativ kinase panel. The format is cell-based. Particulars: 1 μM; MCF-7 Cells; ATP; GGKSGAAFYATEDDRFILK

The next data set concerns the target T2, LATS2 (Homo sapiens, UniProt Q9NRM7).
T2 construct: endogenous in cells; host or cells: MCF7
T2 sequence (Q9NRM7 1-1088): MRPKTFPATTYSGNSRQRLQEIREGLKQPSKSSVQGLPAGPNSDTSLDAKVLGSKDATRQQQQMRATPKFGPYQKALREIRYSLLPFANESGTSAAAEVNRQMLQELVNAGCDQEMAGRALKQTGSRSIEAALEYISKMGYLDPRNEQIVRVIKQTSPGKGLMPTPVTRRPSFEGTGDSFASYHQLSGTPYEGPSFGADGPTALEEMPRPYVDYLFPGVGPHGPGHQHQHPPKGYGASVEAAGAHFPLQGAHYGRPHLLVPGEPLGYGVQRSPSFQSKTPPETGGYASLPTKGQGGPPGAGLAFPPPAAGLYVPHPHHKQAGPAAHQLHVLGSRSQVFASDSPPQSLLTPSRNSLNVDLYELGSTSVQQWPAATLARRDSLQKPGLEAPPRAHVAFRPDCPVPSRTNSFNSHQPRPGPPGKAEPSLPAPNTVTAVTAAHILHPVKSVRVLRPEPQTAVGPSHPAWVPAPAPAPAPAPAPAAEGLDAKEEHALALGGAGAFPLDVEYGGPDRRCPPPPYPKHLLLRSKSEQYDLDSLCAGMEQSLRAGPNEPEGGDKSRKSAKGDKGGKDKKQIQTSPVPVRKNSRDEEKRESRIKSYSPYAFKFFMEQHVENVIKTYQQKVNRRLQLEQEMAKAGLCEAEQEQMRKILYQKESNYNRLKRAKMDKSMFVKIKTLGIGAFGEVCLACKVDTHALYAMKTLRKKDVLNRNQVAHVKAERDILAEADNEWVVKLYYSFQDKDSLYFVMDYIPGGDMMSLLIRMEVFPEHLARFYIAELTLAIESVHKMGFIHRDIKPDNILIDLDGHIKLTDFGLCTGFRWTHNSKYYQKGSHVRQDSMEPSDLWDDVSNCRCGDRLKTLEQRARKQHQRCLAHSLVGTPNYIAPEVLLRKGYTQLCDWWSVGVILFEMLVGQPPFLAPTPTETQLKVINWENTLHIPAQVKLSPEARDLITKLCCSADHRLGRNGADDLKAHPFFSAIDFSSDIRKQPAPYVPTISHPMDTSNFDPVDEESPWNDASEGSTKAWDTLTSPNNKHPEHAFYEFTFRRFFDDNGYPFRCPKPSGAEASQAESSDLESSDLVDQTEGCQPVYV
In words: KiNativ kinase panel. The format is cell-based. Particulars: 1 μM, MCF-7 Cells.

Another data set addresses T3, p38a (Homo sapiens, UniProt Q16539).
T3 construct: purchased ActivX Biosciences (KiNativ)
In words: KiNativ kinase panel. Particulars: 1 μM, MCF-7 Cells. The format is cell-based.

For the next data set, the target named is T4, SYK (Homo sapiens, UniProt P43405).
T4 construct: MCF7 cells were exposed to; endogenous in cells; host or cells: MCF7
Description: KiNativ kinase panel. It counts as cell-based. Particulars: 1 μM, MCF-7 Cells.

Data set [1] deals with CaMK2a, CaMK2b, CaMK2d, CaMK2g. Description: KiNativ kinase panel. The format is cell-based. The note with it: 1 μM, MCF-7 Cells, Lys2.
In the next data set the target is T5, TYK2_Domain2 domain2 (Homo sapiens, UniProt P29597).
T5 construct: Briefly, MCF7 cells were exposed to; endogenous in cells; host or cells: MCF7
Description: KiNativ kinase panel. The note with it: 1 μM; MCF-7 Cells; Activation Loop; IGDFGLAKAVPEGHEYYR
It counts as cell-based.

The test system of data set [2] is MCF-7 (PIK3CA^E545K) cell line-derived xenograft. In words: 28-day study in the MCF-7 CDX model. Particulars: for tumor volume: MCF-7 CDX, once weekly ip, 28-day study, most significant at 3 or 10 mg/kg; for tolerability (body weight): up to 10 mg/kg ip once weekly.
Description: Formulation containing transcutol/solutol HS15/H 2O (5/5/90, %w/w/v) was used, with a dose volume at 5 mL/kg.
Methods for xenograft studies.
MCF-7 xenograft studies. Female Balb/c nude mice (Shanghai Lingchang Biotechnology), 6–8 weeks of age, were inoculated subcutaneously in the right flank with MCF-7 (ECACC-
Three days prior to inoculation, mice were fed with drinking water containing β-estradiol (40 μg/mL). When mean tumor volume reached between 200–400 mm 3, mice were randomized into treatment groups (n = 12/group) for efficacy study, and tumor volume was measured twice weekly by caliper measurements for the duration of the study.
compounds were administered by ip injections at indicated doses, once weekly.
The target of the next data set is T6, EphB2 (Homo sapiens, UniProt P29323).
T6 construct: MCF7 cells were exposed to; endogenous in cells; host or cells: MCF7
Description: KiNativ kinase panel. The format is cell-based. The note with it: 1 μM; MCF-7 Cells; Activation Loop; FLEDDTSDPTYTSALGGKIPIR

The target of the next data set is T7, PDE4D2 (h) (Homo sapiens, UniProt Q08499).
T7 construct: Eurofins (ran the panel)
In words: Eurofins Safety Screen 44. It counts as biochemical. The note with it: read-out: % Inhibition of Control Values.

The target of data set [3] is T8, 5-HT1B (h) (antagonist radioligand) (Homo sapiens, UniProt P28222).
T8 construct: purchased ActivX Biosciences (KiNativ)
In words: Eurofins Safety Screen 44. It counts as binding. The note with it: read-out: % Inhibition of Control Values.

Data set [4] addresses T9, ETA(h) (agonist radioligand) (Homo sapiens, UniProt P25101).
T9 construct: purchased ActivX Biosciences (KiNativ)
In words: Eurofins Safety Screen 44. Particulars: read-out: % Inhibition of Control Values. It counts as binding.

The test system of the next data set is p-P70S6K Thr389. In words: AlphaLISA/MSD analysis of S6K phosphorylation in MDA-MB-468 cells. It counts as cell-based. The note with it: Homo sapiens, MDA-MB-468, read-out: pS6K IC50. The procedure:
Cell culture and reagents. Cells were obtained from ATCC, grown in appropriate medium supplemented with 10% fetal bovine serum and 1% penicillin/streptomycin and maintained at 37 °C in a humidified incubator at 5% CO 2.
AlphaLISA and MesoScale Discovery (MSD) analysis of 4EBP1, S6K and AKT phosphorylation. mTOR substrate phosphorylation in MDA-MB-468 cells was assayed using AlphaLISA SureFire Ultra kits for p4EBP1 Thr37/46, p-P70S6K Thr389 and p-AKT1/2/3 Ser473 (PerkinElmer), and MSD Multi-Array Assay Systems for Phospho-4EBP1 (Thr37/46) and Phospho-AKT (Ser473) (MSD). Cells were seeded at 25,000 cells per well and exposed the next day to serial three-fold dilutions of compounds in complete medium with 0.1% dimethylsulfoxide (DMSO). After indicated incubation times, cells were lysed and AlphaLISA or MSD performed according to the manufacturers’ protocols. Samples were read using an EnVision Multilabel Plate Reader (PerkinElmer) using standard AlphaLISA settings or using an MSD plate reader. Data were plotted as a function of logM [compound] with a sigmoidal concentration response (variable slope) model fitted to the data to estimate the inhibitor half-maximum effective concentration (EC 50) in Prism 7 (GraphPad). Alternatively, results were analyzed as percentage of control in which 0% was set as signal from 1 μM Torin1 and 100% was set as the mean of DMSO wells on each plate, and inhibitor EC 50 was estimated as described
(In general: Alpha assays give light when donor and acceptor beads are brought close together.)

T3 sequence (Q16539 whole entry): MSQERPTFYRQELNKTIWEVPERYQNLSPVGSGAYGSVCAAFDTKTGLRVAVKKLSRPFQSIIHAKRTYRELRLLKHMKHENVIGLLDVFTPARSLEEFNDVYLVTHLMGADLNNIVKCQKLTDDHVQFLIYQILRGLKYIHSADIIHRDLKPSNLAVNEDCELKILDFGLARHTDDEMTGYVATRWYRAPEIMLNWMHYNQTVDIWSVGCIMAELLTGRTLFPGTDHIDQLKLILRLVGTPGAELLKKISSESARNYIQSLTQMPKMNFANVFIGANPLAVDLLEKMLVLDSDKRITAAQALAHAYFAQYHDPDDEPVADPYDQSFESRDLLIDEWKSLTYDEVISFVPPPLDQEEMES
T6 sequence (P29323 19-1055): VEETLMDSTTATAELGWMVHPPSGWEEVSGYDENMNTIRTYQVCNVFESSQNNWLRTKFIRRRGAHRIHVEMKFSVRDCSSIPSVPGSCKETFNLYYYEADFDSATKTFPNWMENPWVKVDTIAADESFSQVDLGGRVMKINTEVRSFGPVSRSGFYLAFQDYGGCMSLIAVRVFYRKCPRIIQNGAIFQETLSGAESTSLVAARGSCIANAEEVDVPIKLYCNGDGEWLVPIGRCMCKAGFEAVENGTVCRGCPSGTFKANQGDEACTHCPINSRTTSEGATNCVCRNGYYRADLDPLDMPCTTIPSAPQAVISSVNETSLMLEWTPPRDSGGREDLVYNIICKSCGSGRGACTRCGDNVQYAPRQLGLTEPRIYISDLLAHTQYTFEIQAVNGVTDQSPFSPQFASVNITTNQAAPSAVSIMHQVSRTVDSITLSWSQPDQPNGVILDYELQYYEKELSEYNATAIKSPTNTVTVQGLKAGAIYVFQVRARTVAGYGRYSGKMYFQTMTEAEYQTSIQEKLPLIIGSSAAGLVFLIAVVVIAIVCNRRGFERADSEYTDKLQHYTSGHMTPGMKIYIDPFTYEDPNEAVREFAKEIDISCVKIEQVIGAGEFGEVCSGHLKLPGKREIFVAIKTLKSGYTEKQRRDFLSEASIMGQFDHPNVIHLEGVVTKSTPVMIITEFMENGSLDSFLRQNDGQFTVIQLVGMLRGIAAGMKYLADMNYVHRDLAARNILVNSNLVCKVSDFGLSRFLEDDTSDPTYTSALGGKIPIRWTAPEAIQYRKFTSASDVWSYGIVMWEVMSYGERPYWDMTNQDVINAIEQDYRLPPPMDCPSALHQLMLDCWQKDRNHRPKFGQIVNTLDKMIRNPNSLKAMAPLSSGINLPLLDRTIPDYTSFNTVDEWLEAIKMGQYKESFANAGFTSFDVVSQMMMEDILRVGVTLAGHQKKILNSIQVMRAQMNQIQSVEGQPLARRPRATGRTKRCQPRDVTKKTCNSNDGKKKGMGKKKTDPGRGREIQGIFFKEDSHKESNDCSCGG
T1 sequence (Q9Y2I7 whole entry): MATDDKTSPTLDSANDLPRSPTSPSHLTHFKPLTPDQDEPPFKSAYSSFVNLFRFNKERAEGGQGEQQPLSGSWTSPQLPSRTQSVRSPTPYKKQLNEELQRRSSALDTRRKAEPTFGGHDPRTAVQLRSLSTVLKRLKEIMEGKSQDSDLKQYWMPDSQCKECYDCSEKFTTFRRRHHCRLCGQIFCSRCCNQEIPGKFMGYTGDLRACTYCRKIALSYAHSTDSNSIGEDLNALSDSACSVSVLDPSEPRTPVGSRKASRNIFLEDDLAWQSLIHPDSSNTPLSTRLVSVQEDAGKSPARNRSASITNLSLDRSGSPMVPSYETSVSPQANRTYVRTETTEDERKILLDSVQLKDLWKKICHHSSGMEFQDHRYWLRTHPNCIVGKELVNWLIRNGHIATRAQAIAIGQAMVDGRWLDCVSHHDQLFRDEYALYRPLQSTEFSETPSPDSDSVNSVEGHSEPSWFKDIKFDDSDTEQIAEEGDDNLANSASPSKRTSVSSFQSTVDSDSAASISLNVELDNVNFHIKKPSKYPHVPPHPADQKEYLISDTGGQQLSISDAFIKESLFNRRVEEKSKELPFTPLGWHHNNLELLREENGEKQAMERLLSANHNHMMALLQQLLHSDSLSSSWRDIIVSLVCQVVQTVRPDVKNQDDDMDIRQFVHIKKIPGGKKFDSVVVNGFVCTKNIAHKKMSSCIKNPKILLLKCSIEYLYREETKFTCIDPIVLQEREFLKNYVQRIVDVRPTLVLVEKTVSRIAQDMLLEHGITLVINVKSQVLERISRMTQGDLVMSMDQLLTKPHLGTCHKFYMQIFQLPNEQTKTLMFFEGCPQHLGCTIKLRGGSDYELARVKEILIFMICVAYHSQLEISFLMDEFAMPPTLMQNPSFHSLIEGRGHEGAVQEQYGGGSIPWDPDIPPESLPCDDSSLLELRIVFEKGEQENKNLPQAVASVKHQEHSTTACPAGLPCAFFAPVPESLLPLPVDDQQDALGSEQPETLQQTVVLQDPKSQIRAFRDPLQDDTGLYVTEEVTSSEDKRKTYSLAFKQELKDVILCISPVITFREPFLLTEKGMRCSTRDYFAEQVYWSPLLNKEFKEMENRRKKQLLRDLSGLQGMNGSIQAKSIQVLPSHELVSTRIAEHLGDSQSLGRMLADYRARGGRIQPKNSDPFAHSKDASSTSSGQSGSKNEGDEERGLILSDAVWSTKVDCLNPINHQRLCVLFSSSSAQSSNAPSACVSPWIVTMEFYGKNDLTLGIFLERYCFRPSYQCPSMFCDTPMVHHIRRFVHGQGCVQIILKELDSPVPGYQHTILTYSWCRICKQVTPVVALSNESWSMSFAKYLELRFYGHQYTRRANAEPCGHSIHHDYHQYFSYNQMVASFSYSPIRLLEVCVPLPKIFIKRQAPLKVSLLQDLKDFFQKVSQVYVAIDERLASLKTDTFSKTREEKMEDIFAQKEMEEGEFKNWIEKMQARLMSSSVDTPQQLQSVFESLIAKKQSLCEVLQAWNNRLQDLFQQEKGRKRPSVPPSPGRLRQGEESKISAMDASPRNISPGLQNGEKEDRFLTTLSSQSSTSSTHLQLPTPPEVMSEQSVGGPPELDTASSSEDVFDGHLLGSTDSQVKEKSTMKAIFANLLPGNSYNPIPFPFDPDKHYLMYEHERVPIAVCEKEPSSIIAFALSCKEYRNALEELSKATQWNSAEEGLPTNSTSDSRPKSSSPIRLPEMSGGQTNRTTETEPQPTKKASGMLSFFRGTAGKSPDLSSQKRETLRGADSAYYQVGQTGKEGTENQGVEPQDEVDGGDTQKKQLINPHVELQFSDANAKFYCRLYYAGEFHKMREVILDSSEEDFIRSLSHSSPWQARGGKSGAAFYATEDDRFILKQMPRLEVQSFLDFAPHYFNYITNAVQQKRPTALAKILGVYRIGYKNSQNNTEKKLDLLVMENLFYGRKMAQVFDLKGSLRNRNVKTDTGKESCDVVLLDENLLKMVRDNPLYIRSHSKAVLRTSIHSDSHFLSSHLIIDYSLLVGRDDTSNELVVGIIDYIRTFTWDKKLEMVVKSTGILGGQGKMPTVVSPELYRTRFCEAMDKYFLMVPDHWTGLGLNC
T5 sequence (P29597 whole entry, the tested form may be a part): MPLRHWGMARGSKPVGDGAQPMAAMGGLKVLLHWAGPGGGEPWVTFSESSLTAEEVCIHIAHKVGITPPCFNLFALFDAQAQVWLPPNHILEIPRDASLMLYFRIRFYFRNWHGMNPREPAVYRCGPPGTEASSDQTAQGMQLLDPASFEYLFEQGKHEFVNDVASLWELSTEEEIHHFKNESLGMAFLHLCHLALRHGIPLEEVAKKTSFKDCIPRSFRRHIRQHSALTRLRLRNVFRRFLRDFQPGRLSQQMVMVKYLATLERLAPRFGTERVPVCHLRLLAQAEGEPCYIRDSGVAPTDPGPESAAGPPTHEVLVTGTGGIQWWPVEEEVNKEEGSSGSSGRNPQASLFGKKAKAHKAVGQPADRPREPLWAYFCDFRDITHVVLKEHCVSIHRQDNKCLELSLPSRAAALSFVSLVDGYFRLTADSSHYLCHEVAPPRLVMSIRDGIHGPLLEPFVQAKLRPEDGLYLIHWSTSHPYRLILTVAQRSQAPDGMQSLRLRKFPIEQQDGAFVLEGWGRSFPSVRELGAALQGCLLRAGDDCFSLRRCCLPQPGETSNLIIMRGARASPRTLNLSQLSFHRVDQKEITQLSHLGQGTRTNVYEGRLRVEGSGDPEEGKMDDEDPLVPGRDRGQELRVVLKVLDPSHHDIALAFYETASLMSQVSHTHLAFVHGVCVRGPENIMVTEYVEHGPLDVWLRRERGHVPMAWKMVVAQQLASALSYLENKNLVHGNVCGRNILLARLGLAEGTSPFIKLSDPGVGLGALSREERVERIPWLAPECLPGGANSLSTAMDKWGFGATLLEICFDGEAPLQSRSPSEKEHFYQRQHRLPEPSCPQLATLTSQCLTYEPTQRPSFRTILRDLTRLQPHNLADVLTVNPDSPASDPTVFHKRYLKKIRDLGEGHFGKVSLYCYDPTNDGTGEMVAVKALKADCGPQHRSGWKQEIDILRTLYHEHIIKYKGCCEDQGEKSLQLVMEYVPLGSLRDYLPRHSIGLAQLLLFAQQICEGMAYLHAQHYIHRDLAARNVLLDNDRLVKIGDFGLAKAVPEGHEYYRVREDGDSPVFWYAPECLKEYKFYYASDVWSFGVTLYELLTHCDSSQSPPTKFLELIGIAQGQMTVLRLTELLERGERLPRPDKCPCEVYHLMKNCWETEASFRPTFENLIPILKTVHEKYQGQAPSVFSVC
T9 sequence (P25101 21-427): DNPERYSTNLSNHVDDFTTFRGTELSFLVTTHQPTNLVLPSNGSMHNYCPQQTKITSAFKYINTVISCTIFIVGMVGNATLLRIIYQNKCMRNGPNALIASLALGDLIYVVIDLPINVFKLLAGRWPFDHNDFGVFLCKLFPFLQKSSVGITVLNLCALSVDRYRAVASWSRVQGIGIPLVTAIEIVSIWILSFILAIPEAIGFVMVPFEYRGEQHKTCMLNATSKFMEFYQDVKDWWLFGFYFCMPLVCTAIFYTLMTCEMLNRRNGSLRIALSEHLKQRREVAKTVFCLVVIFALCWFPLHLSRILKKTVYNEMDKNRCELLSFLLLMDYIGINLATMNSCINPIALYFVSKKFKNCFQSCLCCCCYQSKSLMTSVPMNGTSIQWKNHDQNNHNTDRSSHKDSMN

With `CO[C@H]1C[C@@H]2CC[C@@H](C)[C@@](O)(O2)C(=O)C(=O)N2CCCC[C@H]2C(=O)O[C@H]([C@H](C)C[C@@H]2CC[C@@H](OC(=O)NCCOCCOCCOCCOCCOCCOCCOCCOCCC(=O)NCCS(=O)(=O)c3ccc(C(=O)N4CCOc5ccc(-c6ccc(N)nc6)cc5C4)c(C)c3F)[C@H](OC)C2)C[C@@H](O)[C@H](C)/C=C(\C)[C@@H](O)[C@@H](OC)C(=O)[C@H](C)C[C@H](C)/C=C/C=C/C=C/1C` [compound 40], the “KiNativ Kinase Panel Data” value in the data set on PKCa, PKCg (NLIPMDPNGLSDPYVKLK) is on record as 31.7; at PIP5K3, 19.9; on LATS2 (Lys1, VDTHALYAMKTLR), -0.8; at LATS2 (Lys2, DIKPDNILIDLDGHIK) it was -1.4; at p38a (Lys2, DLKPSNLAVNEDCELK) it was -6.8; at p38a (Other, QELNKTIWEVPER) it was -1.6. Further, the “KiNativ Kinase Panel Data” value is 13.3 at SYK (Activation Loop, AQTHGKWPVK); -14.3 at SYK (Activation Loop, ISDFGLSKALR); -3.7 on SYK (Lys1, TVAVKILK); -30.6 in data set [1] (DLKPENLLLASK); 1.9 on TYK2_Domain2 domain2; 1.3 at EphB2. The tumor volume entry in data set [2] is “reduction in tumor volume”. Also, the “tolerability (body weight)” value in data set [2] is on record as “acceptable tolerability profile”.

`CO[C@H]1C[C@@H]2CC[C@@H](C)[C@@](O)(O2)C(=O)C(=O)N2CCCC[C@H]2C(=O)O[C@H]([C@H](C)C[C@@H]2CC[C@@H](OC(=O)NCCOCCOCCOCCOCCOCCOCCOCCOCCC(=O)N3CCc4cc(Cn5nc(-c6ccc7oc(N)nc7c6)c6c(N)ncnc65)ccc4C3)[C@H](OC)C2)C[C@@H](O)[C@H](C)/C=C(\C)[C@@H](O)[C@@H](OC)C(=O)[C@H](C)C[C@H](C)/C=C/C=C/C=C/1C` [compound 38]: the inhibition at 10 µM at PDE4D2 (h) is -45.6%; in data set [3], 13.1%; in [4], 16.8%. Also, the “KiNativ Kinase Panel Data” value with PKCa, PKCg ([…]) was -20.9; at PIP5K3, 0.8; on LATS2 (Lys1, […]), -20.5; at LATS2 (Lys2, DIKPDNILIDLDGHIK), 22.9; at p38a (Lys2, DLKPSNLAVNEDCELK), -4.3; on p38a (Other, QELNKTIWEVPER) it was -5.2. Further, the “KiNativ Kinase Panel Data” value at SYK (Activation Loop, ISDFGLSKALR) is reported as 18.4; at SYK (Activation Loop, […]) it was 6.4; on SYK (Lys1, TVAVKILK), 14.0; in [1] ([…]) it was 26.2; on TYK2_Domain2 domain2, 15.6; at EphB2, 26.5. Also, the tumor volume result in data set [2] is recorded as “reduction in tumor volume”. Besides, in data set [2], the “tolerability (body weight)” value is “acceptable tolerability profile”. Besides, the IC50 in the data set on p-P70S6K Thr389 was determined as 0.14 nM.
